Results published in ChEMBL document CHEMBL4257530, “Synthesis and evaluation of 6-heteroarylamino-2,4,5-trimethylpyridin-3-ols as inhibitors of TNF-α-induced cell adhesion and inflammatory bowel disease” (Medchemcomm, 2018).
Calls of active or inactive are those of the source. No cut-off for these calls is given here.

Key:
[1] = system: HT-29; assay: Potency index, ratio of compound effect to 5-ASA effect for inhibition of TNFalpha-mediated adhesion of BCECF fluorescence-labeled human U937 cells to human HT-29 cells at 1 uM; type: functional
[2] = system: HT-29; assay: Inhibition of TNFalpha-mediated adhesion of BCECF fluorescence-labeled human U937 cells to human HT-29 cells at 1 uM pretreated for 1 hr followed by BCECF fluorescence-labeled human U937 cell/TNFalpha addition and measured after 3 hrs by fluorescence assay relative to control; type: functional
[3] = system: Rattus norvegicus; assay: Antiinflammatory activity in TNBS-induced Sprague-Dawley rat colitis model assessed as decrease in MCP1 expression at 1 mg/kg, po administered once daily via gavage for 5 days starting 1 day post TNBS induction measured on day 7 by ELISA; type: functional, organism-based
[4] = system: Rattus norvegicus; assay: Antiinflammatory activity in TNBS-induced Sprague-Dawley rat colitis model assessed as decrease in ICAM1 expression at 1 mg/kg, po administered once daily via gavage for 5 days starting 1 day post TNBS induction measured on day 7 by Western blot analysis; type: functional, organism-based
[5] = system: Rattus norvegicus; assay: Antiinflammatory activity in TNBS-induced Sprague-Dawley rat colitis model assessed as increase in IL-10 expression at 1 mg/kg, po administered once daily via gavage for 5 days starting 1 day post TNBS induction measured on day 7 by Western blot analysis; type: functional, organism-based
[6] = system: Rattus norvegicus; assay: Antiinflammatory activity in TNBS-induced Sprague-Dawley rat colitis model assessed as reduction in body weight loss at 1 mg/kg, po administered once daily via gavage for 5 days starting 1 day post TNBS induction measured on day 7; type: functional, organism-based
[7] = system: Rattus norvegicus; assay: Antiinflammatory activity in TNBS-induced Sprague-Dawley rat colitis model assessed as recovery in colon weight at 1 mg/kg, po administered once daily via gavage for 5 days starting 1 day post TNBS induction measured on day 7 relative to control; type: functional
[8] = system: Rattus norvegicus; assay: Antiinflammatory activity in TNBS-induced Sprague-Dawley rat colitis model assessed as decrease in IL1beta expression at 1 mg/kg, po administered once daily via gavage for 5 days starting 1 day post TNBS induction measured on day 7 by Western blot analysis; type: functional, organism-based
[9] = system: Rattus norvegicus; assay: Antiinflammatory activity in TNBS-induced Sprague-Dawley rat colitis model assessed as decrease in TNFalpha expression at 1 mg/kg, po administered once daily via gavage for 5 days starting 1 day post TNBS induction measured on day 7 by Western blot analysis; type: functional, organism-based
[10] = system: Rattus norvegicus; assay: Antiinflammatory activity in TNBS-induced Sprague-Dawley rat colitis model assessed as decrease in IL-6 expression at 1 mg/kg, po administered once daily via gavage for 5 days starting 1 day post TNBS induction measured on day 7 by Western blot analysis; type: functional, organism-based
[11] = system: Rattus norvegicus; assay: Antiinflammatory activity in TNBS-induced Sprague-Dawley rat colitis model assessed as myeloperoxidase level at 1 mg/kg, po administered once daily via gavage for 5 days starting 1 day post TNBS induction measured on day 7 by ELISA (reference value: 456.67 +/- 41.78 ng/ml); type: functional
[12] = system: HT-29; assay: Potency index, ratio of 5-ASA IC50 to test compound IC50 for TNFalpha-mediated adhesion of BCECF fluorescence-labeled human U937 cells to human HT-29 cells; type: functional
[13] = system: Rattus norvegicus; assay: Antiinflammatory activity in TNBS-induced Sprague-Dawley rat colitis model assessed as increase in IL-10 expression at 300 mg/kg, po administered once daily via gavage for 5 days starting 1 day post TNBS induction measured on day 7 by Western blot analysis; type: functional, organism-based
[14] = system: Rattus norvegicus; assay: Antiinflammatory activity in TNBS-induced Sprague-Dawley rat colitis model assessed as decrease in IL1beta expression at 300 mg/kg, po administered once daily via gavage for 5 days starting 1 day post TNBS induction measured on day 7 by Western blot analysis; type: functional, organism-based
[15] = system: Rattus norvegicus; assay: Antiinflammatory activity in TNBS-induced Sprague-Dawley rat colitis model assessed as decrease in ICAM1 expression at 300 mg/kg, po administered once daily via gavage for 5 days starting 1 day post TNBS induction measured on day 7 by Western blot analysis; type: functional, organism-based
[16] = system: Rattus norvegicus; assay: Antiinflammatory activity in TNBS-induced Sprague-Dawley rat colitis model assessed as recovery in colon weight at 300 mg/kg, po administered once daily via gavage for 5 days starting 1 day post TNBS induction measured on day 7; type: functional, organism-based
[17] = system: Rattus norvegicus; assay: Antiinflammatory activity in TNBS-induced Sprague-Dawley rat colitis model assessed as decrease in TNFalpha expression at 300 mg/kg, po administered once daily via gavage for 5 days starting 1 day post TNBS induction measured on day 7 by Western blot analysis; type: functional, organism-based
[18] = system: Rattus norvegicus; assay: Antiinflammatory activity in TNBS-induced Sprague-Dawley rat colitis model assessed as myeloperoxidase level at 300 mg/kg, po administered once daily via gavage for 5 days starting 1 day post TNBS induction measured on day 7 by ELISA (reference value: 456.67 +/- 41.78 ng/ml); type: functional
[19] = system: Rattus norvegicus; assay: Antiinflammatory activity in TNBS-induced Sprague-Dawley rat colitis model assessed as decrease in MCP1 expression at 300 mg/kg, po administered once daily via gavage for 5 days starting 1 day post TNBS induction measured on day 7 by ELISA; type: functional, organism-based
[20] = system: Rattus norvegicus; assay: Antiinflammatory activity in TNBS-induced Sprague-Dawley rat colitis model assessed as decrease in IL-6 expression at 300 mg/kg, po administered once daily via gavage for 5 days starting 1 day post TNBS induction measured on day 7 by Western blot analysis; type: functional, organism-based
[21] = system: HT-29; assay: Inhibition of TNFalpha-mediated adhesion of BCECF fluorescence-labeled human U937 cells to human HT-29 cells at 20 mM pretreated for 1 hr followed by BCECF fluorescence-labeled human U937 cell/TNFalpha addition and measured after 3 hrs by fluorescence assay relative to control; type: functional

| Structure (SMILES) | Ratio [1] | inhibition at 1 µM [2] [%] | also measured |
| --- | --- | --- | --- |
| COC(=O)c1sccc1Nc1nc(C)c(O)c(C)c1C | 3 - 5 | 23.7 |  |
| Cc1nc(Nc2nnc(-c3ccccc3)s2)c(C)c(C)c1O | 3 - 5 | 78.7 | Activity [3]: Active; Activity [4]: Active; Activity [5]: Active; Activity [6]: Active; Activity [7]: 79%; Activity [8]: Active; Activity [9]: Active; Activity [10]: Active; Activity [11]: 107.37 ng/mL |
| Cc1nc(Nc2ccnc3ccccc23)c(C)c(C)c1O | 3 - 5 | 60.2 |  |
| Cc1nc(Nc2ccc3ncccc3c2)c(C)c(C)c1O | 3 - 5 | 56.6 |  |
| Cc1nc(Nc2cccc3cccnc23)c(C)c(C)c1O | 3 - 5 | 10.4 |  |
| Cc1nc(Nc2nc3ccccc3[nH]2)c(C)c(C)c1O | 3 - 5 | 59.9 |  |
| Cc1ccc(-c2nnc(Nc3nc(C)c(O)c(C)c3C)s2)cc1 | 3 - 5 | 16.6 |  |
| Cc1nc(Nc2nnc(-c3ccccc3)o2)c(C)c(C)c1O |  | 1.4 |  |
| Cc1nc(Nc2nnc(C(F)(F)F)o2)c(C)c(C)c1O | 3 - 5 | 35.8 |  |
| Cc1nc(Nc2cc(C(F)(F)F)ccn2)c(C)c(C)c1O | 3 - 5 | 22.8 |  |
| Cc1nc(Nc2cccc3cnccc23)c(C)c(C)c1O | 3 - 5 | 52.8 |  |
| Cc1nc(Nc2nnc(-c3ccc(C(F)(F)F)cc3)s2)c(C)c(C)c1O | 3 - 5 | 52.3 |  |
| Cc1nc(Nc2cnc3ccccc3c2)c(C)c(C)c1O | 3 - 5 | 63.4 | Ratio IC50 [12]: <=7 ×10⁴ No_unit |
| O=C(O)c1cc(/N=N/c2ccc(S(=O)(=O)Nc3ccccn3)cc2)ccc1O [SULFASALAZINE] |  |  | Activity [13]: Active; Activity [14]: Active; Activity [15]: Active; Activity [16]: Active; Activity [17]: Active; Activity [18]: 209.65 ng/mL; Activity [19]: Active; Activity [20]: Active |
| Cc1nc(Nc2cccc3[nH]ccc23)c(C)c(C)c1O | 3 - 5 | 31.9 |  |
| Cc1nnc(Nc2nc(C)c(O)c(C)c2C)o1 | 3 - 5 | 26.2 |  |
| Cc1nc(Nc2ccccn2)c(C)c(C)c1O | 3 - 5 | 8.5 |  |
| Cc1nc(Nc2nccs2)c(C)c(C)c1O | 3 - 5 | 23.7 |  |
| Cc1nc(Nc2cncc3ccccc23)c(C)c(C)c1O | 3 - 5 | 55.4 |  |
| Cc1nc(Nc2nnc(-c3ccc(Br)cc3)s2)c(C)c(C)c1O | 3 - 5 | 13.7 |  |
| Cc1nc(Nc2ccc(Cl)cn2)c(C)c(C)c1O | 3 - 5 | 59 |  |
| Cc1nc(Nc2ccc(Cl)nc2)c(C)c(C)c1O | 3 - 5 | 75.4 | Activity [3]: Active; Activity [4]: Active; Activity [5]: Active; Activity [6]: Active; Activity [7]: 72%; Activity [8]: Active; Activity [9]: Active; Ratio IC50 [12]: <=7 ×10⁴ No_unit; Activity [10]: Active; Activity [11]: 127.02 ng/mL |
| COc1ccc(-c2nnc(Nc3nc(C)c(O)c(C)c3C)s2)cc1 | 3 - 5 | 13.2 |  |
| Cc1nc(Nc2ccc(C(F)(F)F)nc2)c(C)c(C)c1O | 3 - 5 | 50.6 |  |
| Cc1nc(Nc2ccc(C(F)(F)F)cn2)c(C)c(C)c1O | 3 - 5 | 34.8 |  |
| Cc1nc(Nc2nnc(-c3ccc(C(F)(F)F)cc3)o2)c(C)c(C)c1O | 3 - 5 | 55.7 |  |
| CCOC(=O)c1coc(Nc2nc(C)c(O)c(C)c2C)n1 | 3 - 5 | 38.5 |  |
| Nc1ccc(O)c(C(=O)O)c1 [MESALAMINE] |  | 3.5 | inhibition at 20000 µM [21]: 50.5% |
